# Laboratory results as given in patent US6670363B1, “Azole compounds as therapeutic agents for fungal infections” (Ranbaxy Laboratories Limited, priority 2000, dated 2003).
# Assays:
# A. fumigatus s 1008 = test: In vitro MIC, NCCLS M38P broth method (RPMI 1640/MOPS pH7), Aspergillus fumigatus; format: cell-based; conditions: A. fumigatus strain 1008
# Candida = test: In vitro MIC, NCCLS M27A, Candida species; format: cell-based; design: MIC, Candida albicans 1.549 / MIC, Candida albicans Y-01-19 / MIC, C. krusei 766-1 / MIC, C. krusei Q. C / MIC, Candida tropicalis ATCC / MIC, C. glabrata 90030: unit not given beside the values; MIC, Candida albicans A 26 / MIC, C. parapsilosis Q. C.: unit not given here; conditions: for MIC, C. glabrata 90030: C. glabrata strain 90030; for MIC, C. krusei 766-1: C. krusei strain 766-1; for MIC, C. krusei Q. C: C. krusei strain Q. C; for MIC, C. parapsilosis Q. C.: C. parapsilosis strain Q. C.; for MIC, Candida albicans 1.549: Candida albicans strain 1.549; for MIC, Candida albicans A 26: Candida albicans strain A 26; for MIC, Candida albicans Y-01-19: Candida albicans strain Y-01-19
# Cryptococcus neoformans = test: In vitro MIC, NCCLS M27A, Cryptococcus neoformans; format: cell-based; design: MIC, C. neoformans I: unit not given beside the values; MIC, C. neoformans M 106: unit not given here; conditions: for MIC, C. neoformans I: C. neoformans strain I; for MIC, C. neoformans M 106: C. neoformans strain M 106
# Histoplasma capsulatum = format: cell-based
Compound,"MIC, A. fumigatus 1008 (A. fumigatus s 1008)","MIC, C. glabrata 90030 (Candida)","MIC, C. krusei 766-1 (Candida)","MIC, C. krusei Q. C (Candida)","MIC, C. parapsilosis Q. C. (Candida)","MIC, Candida albicans 1.549 (Candida)","MIC, Candida albicans A 26 (Candida)","MIC, Candida albicans Y-01-19 (Candida)","MIC, Candida tropicalis ATCC (Candida)","MIC, C. neoformans I (Cryptococcus neoformans)","MIC, C. neoformans M 106 (Cryptococcus neoformans)","MIC, H. capsulatum (Histoplasma capsulatum) [µg/mL]",melting point [°C]
"Cc1ccc(Cl)cc1N1CCN(c2ccc(-n3cnn(CC(O)(Cn4cncn4)c4ccc(F)cc4F)c3=O)cc2)CC1 (stereo not drawn) [Compound 48, 2-[2-(2,4-Difluorophenyl)-2-hydroxy-3-(1H-1,2,4-triazol-1-yl)propyl]-4-{4-[4-(5-chloro-2-methylphenyl)-1-piperazinyl]phenyl}-3-(2H,4H)-1,2,4-triazolone]",>16,1.00,1.00,0.50,0.12,0.50,<0.03,0.50,<0.03,<0.03,0.06,0.25,82 to 87
"O=c1n(-c2ccc(N3CCN(c4cccc(Cl)c4)CC3)cc2)cnn1CC(O)(Cn1cncn1)c1ccc(F)cc1F (stereo not drawn) [Compound 57, 2-[2-(2,4-Difluorophenyl)-2-hydroxy-3-(1H-1,2,4-triazol-1-yl)propyl]-4-{4-[4-(3-chlorophenyl)-1-piperazinyl]phenyl}-3-(2H,4H)-1,2,4-triazolone]",>16,0.25,0.50,0.25,<0.03,0.25,<0.03,0.12,<0.03,<0.03,<0.03,0.06,177 to 178
"Cc1ccc(N2CCN(c3ccc(-n4cnn(CC(O)(Cn5cncn5)c5ccc(F)cc5F)c4=O)cc3)CC2)cc1Cl (stereo not drawn) [Compound 49, 2-[2-(2,4-Difluorophenyl)-2-hydroxy-3-(1H-1,2,4-triazol-1-yl)propyl]-4-{4-[4-(3-chloro-4-methylphenyl)-1-piperazinyl]phenyl}-3-(2H,4H)-1,2,4-triazolone]",4.00,0.25,0.25,0.06,<0.03,<0.03,<0.03,<0.03,<0.03,<0.03,<0.03,< 0.03,189 to 201
"Cc1ccc(N2CCN(c3ccc(-n4cnn(CC(O)(Cn5cncn5)c5ccc(F)cc5F)c4=O)cc3)CC2)cc1C (stereo not drawn) [Compound 56, 2-[2-(2,4-Difluorophenyl)-2-hydroxy-3-(1H-1,2,4-triazol-1-yl)propyl]-4-{4-[4-(3,4-dimethylphenyl)-1-piperazinyl]phenyl}-3-(2H,4H)-1,2,4-triazolone]",>16,0.25,1.00,0.25,<0.03,0.06,<0.03,0.03,<0.03,<0.03,0.03,0.004,136 to 137
"Cc1ccc(N2CCN(c3ccc(-n4cnn(CC(O)(Cn5cncn5)c5ccc(F)cc5F)c4=O)cc3)CC2)cc1 (stereo not drawn) [Compound 39, 2-[2-(2,4-Difluorophenyl)-2-hydroxy-3-(1H-1,2,4-triazol-1-yl)propyl]-4-{4-[4-(4-methylphenyl)-1-piperazinyl]phenyl}-3-(2H,4H)-1,2,4-triazolone]",6.25,0.10,0.80,0.10,<0.02,0.10,<0.02,0.02,6.25,<0.02,0.05,0.05,146 to 148
"COc1ccccc1N1CCN(c2ccc(-n3cnn(CC(O)(Cn4cncn4)c4ccc(F)cc4F)c3=O)cc2)CC1 (stereo not drawn) [Compound 42, 2-[2-(2,4-Difluorophenyl)-2-hydroxy-3-(1H-1,2,4-triazol-1-yl)propyl]-4-{4-[4-(2-methoxyphenyl)-1-piperazinyl]phenyl}-3-(2H,4H)-1,2,4-triazolone]",>12.5,1.56,3.12,1.56,<0.02,0.40,0.05,12.50,12.50,0.20,0.80,0.05,95 to 97
"O=c1n(-c2ccc(N3CCN(c4ccc(F)cc4F)CC3)cc2)cnn1CC(O)(Cn1cncn1)c1ccc(F)cc1F (stereo not drawn) [Compound 52, 2-[2-(2,4-Difluorophenyl)-2-hydroxy-3-(1H-1,2,4-triazol-1-yl)propyl]-4-{4-[4-(2,4-difluorophenyl)-1-piperazinyl]phenyl}-3-(2H,4H)-1,2,4-triazolone]",>16,1.00,4.00,0.50,<0.03,0.06,<0.03,0.12,<0.03,<0.03,<0.03,< 0.03,157 to 158
"O=c1n(-c2ccc(N3CCN(c4ccc(F)cc4)CC3)cc2)cnn1CC(O)(Cn1cncn1)c1ccc(F)cc1F (stereo not drawn) [Compound 43, 2-[2-(2,4-Difluorophenyl)-2-hydroxy-3-(1H-1,2,4-triazol-1-yl)propyl]-4-{4-[4-(4-fluorophenyl)-1-piperazinyl]phenyl}-3-(2H,4H)-1,2,4-triazolone]",>12.5,0.40,1.56,0.20,<0.02,<0.02,<0.02,0.05,12.50,0.05,0.05,< 0.02,173 to 177
"O=c1n(-c2ccc(N3CCN(c4ccc(Cl)cc4Cl)CC3)cc2)cnn1CC(O)(Cn1cncn1)c1ccc(F)cc1F (stereo not drawn) [Compound 50, 2-[2-(2,4-Difluorophenyl)-2-hydroxy-3-(1H-1,2,4-triazol-1-yl)propyl]-4-{4-[4-(2,4-dichlorophenyl)-1-piperazinyl]phenyl}-3-(2H,4H)-1,2,4-triazolone]",2.00,0.50,0.50,0.25,<0.03,0.12,<0.03,0.12,<0.03,<0.03,<0.03,< 0.03,97 to 99
